{"source": "patent US20250325529A1", "about": "“INHIBITORS OF FATTY ACID BINDING PROTEINS (FABPs), METHODS OF USE AND METHODS OF MAKING” (Celloram, inc., priority 2024, published 2025)", "key": {"[1]": {"experiment": "Single dose IV and PO PK study in C57BL/6 mice", "format": "in vivo", "details": "male C57BL/6 mice", "protocol": "C57BL/6 male mice or Han Wistar rats were used, n=3 for each administration route and compound. Single dose of each compound was administered orally (PO, 10 mg/Kg) or by intravenous administration (IV, 1 mg/Kg). Following intravenous and oral administration, blood samples (ca 0.2 mL) were collected and compound amount was measured by HLPC. For IV group, blood samples were collected at 0.083, 0.25, 0.5, 1, 2, 4, 6, 8, and 24 hours post-dose. For PO group, blood samples were collected at 0.25, 0.5, 1, 2, 4, 6, 8, and 24 hours post-dose."}, "[2]": {"system": "Salmonella typhimurium tester strain TA1535", "experiment": "Ames test (Bacterial Reverse Mutation Test), TA1535", "format": "cell-based", "protocol": "PD152 (compound 2) was tested for genotoxic and cytotoxic side effects by Ames test. The Ames test is a Bacterial Reverse Mutation Test of mutagenicity that utilizes Salmonella typhimurium tester strains TA98, TA100, TA1535, TA1537 and Escherichia coli tester strain WP2 uvrA (pKM101), both in the presence and absence of S9.\nThe compound PD152 was tested at 10 concentrations (0.032-1000 μg/plate) in the presence of, or absence of, the hepatic enzyme S9.\nThe aniline FABP4/5 inhibitor compound, 2-((2-((2,4-dichloro-5-isopropoxyphenyl)amino)-2-oxoethyl)thio)-2-methylpropanoic acid (compound “B104” as disclosed in WO2023043803A1) also was tested for genotoxic and cytotoxic side effects by Ames test. B104 was tested using the Salmonella typhimurium tester stains TA98, TA100, TA1535, and TA1537, both in the presence and absence of the hepatic enzyme S9, at 5 concentrations (1.5-64 μg/plate)."}, "OVCAR8 cells": {"system": "OVCAR8 cells", "experiment": "Proliferation assay (Incucyte confluency), OVCAR8", "format": "cell-based", "details": "Homo sapiens, OVCAR-8, 96 h, 4 days, read-out: IC50, inhibition of OVCAR8 proliferation", "protocol": "COS-7, MDA-MB-231, and HepG2, were cultured in Dulbecco's modified Eagle's medium (DMEM) supplemented with 10% fetal bovine serum (Invitrogen Life Sciences, Carlsbad, CA). BT-549, OVCAR5 and OVCAR8 cells were cultured in L-Glutamine containing RPMI medium supplemented with 10% fetal calf serum (Invitrogen Life Sciences, Carlsbad, CA). The primary Human Mammary Epithelial Cells (HMEC) were cultured in mammary epithelial cell complete medium (basal medium plus rH-Insulin (5 μg/mL); L-Glutamine (6 mM); Epinephrine (1 μM); Apo-Transferrin (5 μg/mL); rH-TGF-α (0.5 ng/mL); ExtractP (0.4%); Hydrocortisone Hemisuccinate (100 ng/mL)).\n2000 cells were plated in each well of 96-well plate. The next day cells were treated with compounds and incubated in Incucyte for 4 days. Images taken every 4 hours for the duration of the time were analyzed to calculate percentage of confluency in response to the treatments. Growth inhibition was calculated as 1—(percentage of viable cells out of untreated cells)."}, "[3]": {"details": "mouse, plasma, intravenous 1 mg/kg"}, "[4]": {"details": "TA1535, absence of S9, 0.0312 μg/plate"}, "[5]": {"details": "TA1535, absence of S9, 0.1 μg/plate"}, "[6]": {"details": "TA1535, absence of S9, 0.316 μg/plate"}, "[7]": {"details": "TA1535, absence of S9, 1 μg/plate"}, "[8]": {"details": "TA1535, absence of S9, 3.16 μg/plate"}, "[9]": {"details": "TA1535, absence of S9, 10 μg/plate"}, "[10]": {"details": "TA1535, absence of S9, 31.6 μg/plate"}, "[11]": {"details": "TA1535, absence of S9, 100 μg/plate"}, "[12]": {"details": "TA1535, absence of S9, 316 μg/plate"}, "[13]": {"details": "TA1535, absence of S9, 1000 μg/plate"}, "[14]": {"details": "TA1535, presence of S9, 0.0312 μg/plate"}, "[15]": {"details": "TA1535, presence of S9, 0.1 μg/plate"}, "[16]": {"details": "TA1535, presence of S9, 0.316 μg/plate"}, "[17]": {"details": "TA1535, presence of S9, 1 μg/plate"}, "[18]": {"details": "TA1535, presence of S9, 3.16 μg/plate"}, "[19]": {"details": "TA1535, presence of S9, 10 μg/plate"}, "[20]": {"details": "TA1535, presence of S9, 31.6 μg/plate"}, "[21]": {"details": "TA1535, presence of S9, 100 μg/plate"}, "[22]": {"details": "TA1535, presence of S9, 316 μg/plate"}, "[23]": {"details": "TA1535, presence of S9, 1000 μg/plate"}}, "data": [{"smiles": "CC(C)Oc1nc(NC(=O)CSCC(=O)O)c(Cl)cc1Cl", "note": "[PD152, 2-((2-((3,5-dichloro-6-isopropoxypyridin-2-yl)amino)-2-oxoethyl)thio)acetic acid]", "values": [{"measurement": "Thalf", "setting": "[1]; oral 10 mg/kg", "result": 2.6, "unit": "h"}, {"measurement": "clearance", "setting": "[1]; [3]", "result": 16.1, "unit": "mL/min/kg"}, {"measurement": "half-life", "setting": "[1]; [3]", "result": "180 to 240", "unit": "min"}, {"measurement": "bioavailability", "setting": "[1]; mouse, plasma, single oral dose 10 mg/kg", "result": 75, "unit": "%"}, {"measurement": "Fold increase", "setting": "[2]; [4]", "result": 1}, {"measurement": "Mean number of revertants", "setting": "[2]; [4]", "result": 3}, {"measurement": "Fold increase", "setting": "[2]; [5]", "result": 1}, {"measurement": "Mean number of revertants", "setting": "[2]; [5]", "result": 3}, {"measurement": "Fold increase", "setting": "[2]; [6]", "result": 1}, {"measurement": "Mean number of revertants", "setting": "[2]; [6]", "result": 3}, {"measurement": "Fold increase", "setting": "[2]; [7]", "result": 1}, {"measurement": "Mean number of revertants", "setting": "[2]; [7]", "result": 3}, {"measurement": "Fold increase", "setting": "[2]; [8]", "result": 1}, {"measurement": "Mean number of revertants", "setting": "[2]; [8]", "result": 3}, {"measurement": "Fold increase", "setting": "[2]; [9]", "result": 1}, {"measurement": "Mean number of revertants", "setting": "[2]; [9]", "result": 4}, {"measurement": "Fold increase", "setting": "[2]; [10]", "result": 1}, {"measurement": "Mean number of revertants", "setting": "[2]; [10]", "result": 4}, {"measurement": "Fold increase", "setting": "[2]; [11]", "result": 1}, {"measurement": "Mean number of revertants", "setting": "[2]; [11]", "result": 4}, {"measurement": "Fold increase", "setting": "[2]; [12]", "result": 1}, {"measurement": "Mean number of revertants", "setting": "[2]; [12]", "result": 3}, {"measurement": "Fold increase", "setting": "[2]; [13]", "result": 1}, {"measurement": "Mean number of revertants", "setting": "[2]; [13]", "result": 3}, {"measurement": "Fold increase", "setting": "[2]; [14]", "result": 1}, {"measurement": "Mean number of revertants", "setting": "[2]; [14]", "result": 3}, {"measurement": "Fold increase", "setting": "[2]; [15]", "result": 1}, {"measurement": "Mean number of revertants", "setting": "[2]; [15]", "result": 4}, {"measurement": "Fold increase", "setting": "[2]; [16]", "result": 1}, {"measurement": "Mean number of revertants", "setting": "[2]; [16]", "result": 3}, {"measurement": "Fold increase", "setting": "[2]; [17]", "result": 1}, {"measurement": "Mean number of revertants", "setting": "[2]; [17]", "result": 4}, {"measurement": "Fold increase", "setting": "[2]; [18]", "result": 1}, {"measurement": "Mean number of revertants", "setting": "[2]; [18]", "result": 4}, {"measurement": "Fold increase", "setting": "[2]; [19]", "result": 1}, {"measurement": "Mean number of revertants", "setting": "[2]; [19]", "result": 4}, {"measurement": "Fold increase", "setting": "[2]; [20]", "result": 1}, {"measurement": "Mean number of revertants", "setting": "[2]; [20]", "result": 4}, {"measurement": "Fold increase", "setting": "[2]; [21]", "result": 1}, {"measurement": "Mean number of revertants", "setting": "[2]; [21]", "result": 4}, {"measurement": "Fold increase", "setting": "[2]; [22]", "result": 1}, {"measurement": "Mean number of revertants", "setting": "[2]; [22]", "result": 4}, {"measurement": "Fold increase", "setting": "[2]; [23]", "result": 1}, {"measurement": "Mean number of revertants", "setting": "[2]; [23]", "result": 4}, {"measurement": "IC50", "setting": "OVCAR8 cells", "result": 665, "unit": "nM"}]}]}
